Columns and labels:
Kentucky bluegrass = test: Turfgrass greening vs commercial greening products, Kentucky bluegrass, Table 32; format: in vivo
Procedure: (§1) To further explain the positive greening response of Formulation 2, two additional trials were conducted on Kentucky bluegrass and perennial ryegrass. The additional trials compared Formulations 2 and 5 with other commercial greening products at equivalent nitrogen rates to better understand the speed of the greening response as well as the darkness of the greening response. Application rates are described in Table 31. The commercial greening products include Green Max™ Lawn Food and Turf Builder® Lawn Food available from the Scotts Company LLC (Marysville, OH). Urea was also evaluated.
(§2) For each trial, preceding application, mowing was withheld for 24 to 48 hours to ensure sufficient leaf area was present for formulation absorption. The experimental unit for turfgrass color response testing was a 3′×3′ plot. The research area for turfgrass color response contained minimal weed pressure so that product impact could be accurately and consistently assessed. Plots were separated on each side by a 2 ft. untreated buffer strip.
(§3) Formulations 2 and 5 were applied early in the morning to dew-laden turf. Green Max™ Lawn Food, Turf Builder® Lawn Food, and urea were all applied to dry turf once the morning dew had dissipated. All treatments were applied using a shaker jar and spreader box to ensure even particle coverage over the plot. Treatments applied to dry turf were watered in immediately after application with 0.18″ of water and wet-foliage applied treatments remained on the leaf surface for 24 hours prior to being watered in with 0.18″ of water. This trial design allowed for comparative evaluation of the response of turf to foliar nitrogen and iron compared to foliar nitrogen; soil applied nitrogen; and soil applied nitrogen and iron at two different rates of iron application. Turfgrass color was rated visually using the National Turfgrass Evaluation Program color rating scale (1-9). Treatments were rated for color 3 and 6 hours after application, and then 1, 3, 7, 14, and 20 days after application. Table 32 depicts testing of Kentucky bluegrass while Table 33 depicts testing of Perennial ryegrass.

perennial ryegrass = test: Turfgrass greening vs commercial greening products, perennial ryegrass, Table 33; format: in vivo
Procedure: as §1, §2, §3

## NC(N)=O [Urea]
Kentucky bluegrass; 1 D after initial application
  Turf Color (1-9): 3.88
Kentucky bluegrass; 3 D after initial application
  Turf Color (1-9): 4.00
Kentucky bluegrass; 7 D after initial application
  Turf Color (1-9): 4.63
Kentucky bluegrass; 14 D after initial application
  Turf Color (1-9): 5.25
Kentucky bluegrass; 20 D after initial application
  Turf Color (1-9): 6.25
Kentucky bluegrass; 3 hr after initial application
  Turf Color (1-9): 3.75
Kentucky bluegrass; 6 hr after initial application
  Turf Color (1-9): 3.75
Perennial ryegrass; 1 D after initial application
  Turf Color (1-9): 3.50
Perennial ryegrass; 3 D after initial application
  Turf Color (1-9): 3.13
Perennial ryegrass; 7 D after initial application
  Turf Color (1-9): 4.63
Perennial ryegrass; 14 D after initial application
  Turf Color (1-9): 4.88
Perennial ryegrass; 20 D after initial application
  Turf Color (1-9): 6.13
Perennial ryegrass; 3 hr after initial application
  Turf Color (1-9): 3.13
Perennial ryegrass; 6 hr after initial application
  Turf Color (1-9): 3.50
